Activity calls are given as the source filed them. The rule behind the calls is not given here.
Columns and labels:
[1] = molecular target: T1, Nuclear receptor subfamily 1 group I member 2 (Homo sapiens, UniProt O75469); assay: Activation of PXR (unknown origin); type: ADME
T1 sequence (O75469 whole entry): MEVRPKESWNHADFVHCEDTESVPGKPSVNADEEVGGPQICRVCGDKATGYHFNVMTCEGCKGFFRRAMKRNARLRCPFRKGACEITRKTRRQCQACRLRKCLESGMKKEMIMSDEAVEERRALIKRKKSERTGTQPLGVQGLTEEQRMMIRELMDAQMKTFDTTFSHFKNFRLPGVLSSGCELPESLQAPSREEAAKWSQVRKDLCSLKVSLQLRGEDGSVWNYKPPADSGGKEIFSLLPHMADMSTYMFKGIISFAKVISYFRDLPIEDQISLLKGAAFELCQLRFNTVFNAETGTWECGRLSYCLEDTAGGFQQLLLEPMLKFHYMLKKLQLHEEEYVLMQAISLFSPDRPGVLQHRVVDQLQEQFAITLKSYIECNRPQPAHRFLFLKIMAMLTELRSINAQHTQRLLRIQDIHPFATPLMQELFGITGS

[2] = molecular target: 11-beta-hydroxysteroid dehydrogenase 1 (Mus musculus, UniProt P50172); assay: Inhibition of recombinant mouse 11beta-HSD1 expressed in HEK293 cell microsomes using [3H]cortisone as substrate after 4 hrs by homogeneous immuno-radiometric scintillation proximity assay
Chain of 11-beta-hydroxysteroid dehydrogenase 1 (P50172 whole entry): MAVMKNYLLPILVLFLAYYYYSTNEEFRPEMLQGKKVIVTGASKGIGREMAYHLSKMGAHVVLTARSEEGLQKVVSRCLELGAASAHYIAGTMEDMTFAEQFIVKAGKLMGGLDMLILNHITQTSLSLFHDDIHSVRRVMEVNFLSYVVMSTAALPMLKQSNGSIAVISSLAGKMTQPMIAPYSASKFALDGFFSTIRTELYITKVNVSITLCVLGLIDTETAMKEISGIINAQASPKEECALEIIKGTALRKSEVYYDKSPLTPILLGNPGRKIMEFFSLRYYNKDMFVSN

[3] = Selectivity ratio of Ki for recombinant mouse 11beta-HSD1 expressed in HEK293 cell microsomes to Ki for recombinant cynomolgus monkey 11beta-HSD1 expressed in HEK293 cell microsomes
Macaca fascicularis = species on record: Macaca fascicularis; assay: Inhibition of cynomolgus monkey 11beta-HSD2 up to 20 uM
[4] = molecular target: T2, 11-beta-hydroxysteroid dehydrogenase type 2 (Rattus norvegicus) (UniProt P50233); assay: Inhibition of rat 11beta-HSD2 up to 20 uM
T2 sequence (whole entry): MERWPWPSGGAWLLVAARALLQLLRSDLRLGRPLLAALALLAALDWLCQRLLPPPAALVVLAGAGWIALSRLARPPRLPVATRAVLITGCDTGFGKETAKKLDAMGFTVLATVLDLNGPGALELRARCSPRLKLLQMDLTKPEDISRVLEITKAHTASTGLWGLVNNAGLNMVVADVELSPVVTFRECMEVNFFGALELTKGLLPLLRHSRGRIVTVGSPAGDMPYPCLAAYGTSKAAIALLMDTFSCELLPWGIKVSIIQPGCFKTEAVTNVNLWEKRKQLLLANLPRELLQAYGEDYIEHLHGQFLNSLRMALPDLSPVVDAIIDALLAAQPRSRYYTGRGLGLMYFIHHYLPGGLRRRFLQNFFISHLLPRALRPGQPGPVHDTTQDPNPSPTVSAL

[5] = molecular target: T3, 11-beta-hydroxysteroid dehydrogenase type 2 (Homo sapiens) (UniProt P80365); assay: Inhibition of recombinant human 11beta-HSD2 expressed in cells up to 30 uM using […] as substrate by LC-MS analysis; type: cell-based
T3 sequence (whole entry): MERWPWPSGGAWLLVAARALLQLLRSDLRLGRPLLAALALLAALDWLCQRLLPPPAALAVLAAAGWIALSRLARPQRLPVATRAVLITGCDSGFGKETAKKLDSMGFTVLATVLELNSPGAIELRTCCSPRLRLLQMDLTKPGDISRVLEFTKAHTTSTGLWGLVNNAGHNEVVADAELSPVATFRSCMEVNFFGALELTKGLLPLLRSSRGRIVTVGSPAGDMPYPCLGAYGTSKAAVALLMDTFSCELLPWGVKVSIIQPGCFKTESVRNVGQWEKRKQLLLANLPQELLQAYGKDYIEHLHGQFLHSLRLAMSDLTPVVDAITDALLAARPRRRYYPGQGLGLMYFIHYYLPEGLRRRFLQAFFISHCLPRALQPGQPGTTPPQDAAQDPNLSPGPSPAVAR

[6] = molecular target: T4, 11-beta-hydroxysteroid dehydrogenase type 2 (Mus musculus) (UniProt P51661); assay: Inhibition of mouse 11beta-HSD2 up to 20 uM
T4 sequence (whole entry): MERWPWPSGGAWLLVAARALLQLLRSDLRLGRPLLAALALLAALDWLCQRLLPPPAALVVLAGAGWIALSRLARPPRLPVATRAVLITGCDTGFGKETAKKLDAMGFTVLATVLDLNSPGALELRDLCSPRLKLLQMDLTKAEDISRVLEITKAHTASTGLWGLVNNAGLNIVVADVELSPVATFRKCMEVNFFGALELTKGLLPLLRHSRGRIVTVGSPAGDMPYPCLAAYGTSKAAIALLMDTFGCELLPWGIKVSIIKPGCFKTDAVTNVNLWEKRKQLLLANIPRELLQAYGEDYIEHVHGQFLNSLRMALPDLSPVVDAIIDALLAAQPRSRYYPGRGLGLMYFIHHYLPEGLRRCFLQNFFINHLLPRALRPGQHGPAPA

[7] = Stability of the compound in oxidative solution; type: physicochemical
[8] = Stability of the compound under high intensity light/UV light measured after 12 weeks using crystalline solid sample; type: physicochemical; conditions: 2016 h
[9] = Aqueous solubility of the compound at pH 6.5 using crystalline sample; type: physicochemical
[10] = Stability of the compound at 50 degC measured after 12 weeks using crystalline solid sample; type: physicochemical; conditions: 2016 h
[11] = Stability of the compound in aqueous buffer at pH 1.1 to pH 7.4 at 40 degC measured after 1 week; type: physicochemical; conditions: pH 1.1, 168 h
[12] = Aqueous solubility of the compound at pH 1 using crystalline sample; type: physicochemical
[13] = Stability of the compound in solid state; type: physicochemical
[14] = Stability of the compound in hydrolytic solution; type: physicochemical

In the case of `OCCCc1cccn2c(C3(c4ccc(Cl)cc4)CC3)nnc12`, the EC50 [1] is reported as 25 µM and the IC50 [2] is reported as 5.7 µM.
`OCC(O)c1cccn2c(C3(c4ccc(Cl)cc4)CC3)nnc12` (centres undefined) gave an EC50 [1] greater than 50 µM and an IC50 [2] greater than 10 µM.
For `CC(C)(O)c1cccn2c(C3(c4ccc(Cl)cc4)CC3)nnc12`, the Ratio Ki [3] was 55, the inhibition (Macaca fascicularis) was “inactive” and the inhibition [4] was “inactive”. For the same compound, the inhibition [5] was “inactive” and the inhibition [6] was “inactive”.
For `CC(C)(O)c1cccn2c(C3(c4ccc(Cl)cc4)CC3)nnc12.Cl` [BMS-823778], the Stability [7] was “Stable”, the Stability [8] was “Stable” and the solubility thermodynamic [9] was 0.5 mg/mL. For the same compound, the Stability [10] was “Stable”, the Stability [11] was “Stable” and the solubility thermodynamic [12] was 220 mg/mL. The Stability [13] was “Stable” and the Stability [14] was “Stable”.
Compound `CC(C)(O)CCc1cccn2c(C3(c4ccc(Cl)cc4)CC3)nnc12` has an EC50 [1] of 3.6 µM and an IC50 [2] greater than 10 µM.

From ChEMBL document CHEMBL4325920, “Discovery of Clinical Candidate BMS-823778 as an Inhibitor of Human 11β-Hydroxysteroid Dehydrogenase Type 1 (11β-HSD-1)” (ACS Med Chem Lett, 2018)
